For 10 cell lines, relative viability results are on record in the supplement of paper PMC10307832.

Test in all cases: relative viability (nuclei count vs DMSO), 5 days (fraction); higher = more cells survive
Compound in the assay “BI-D1870 + Luminespib”: CC(C)CCN1c2nc(Nc3cc(F)c(O)c(F)c3)ncc2N(C)C(=O)C1C [BI-D1870] + CCNC(=O)c1noc(-c2cc(C(C)C)c(O)cc2O)c1-c1ccc(CN2CCOCC2)cc1 [Luminespib] (partner 0.01 µM)
The method in brief: (§1)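 Lung cancer cell lines were seeded in 1536-well plates and dosed by pin tool the next day, with either a single drug or a fixed anchor-drug dose combined with five library-drug doses (not always all listed) spaced in √10 steps. Five days later, one step fixed the cells and stained their nuclei (final 0.05% Triton X-100, 1% formaldehyde, 1 ug/ml Hoechst), and nuclei were counted on 4× images. Relative viability is the nuclei count in treated wells divided by the count in vehicle wells, and each value is the median of duplicate plates.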

Compound in the assay “BI-D1870 + Phenformin”: CC(C)CCN1c2nc(Nc3cc(F)c(O)c(F)c3)ncc2N(C)C(=O)C1C [BI-D1870] + N=C(N)NC(=N)NCCc1ccccc1 [Phenformin] (partner 250 µM)
Put shortly:
as §1

Compound in the assay “BI-D1870 + Decitabine”: CC(C)CCN1c2nc(Nc3cc(F)c(O)c(F)c3)ncc2N(C)C(=O)C1C [BI-D1870] + Nc1ncn([C@H]2C[C@H](O)[C@@H](CO)O2)c(=O)n1 [Decitabine] (partner 2 µM)
Put shortly: as §1

Compound in the assay “Zebularine + Linsitinib”: O=c1ncccn1[C@@H]1O[C@H](CO)[C@@H](O)[C@H]1O [Zebularine] + C[C@]1(O)C[C@@H](c2nc(-c3ccc4ccc(-c5ccccc5)nc4c3)c3c(N)nccn32)C1 [Linsitinib] (partner 1 µM)
The method in brief: as §1

As to SW 900, the relative viability is 0.193 with BI-D1870 + Luminespib (first compound 0.04 µM); 0.192 with BI-D1870 + Luminespib (first compound 0.1265 µM); 0.18 in the assay with BI-D1870 + Luminespib (first compound 0.4 µM); 0.175 with BI-D1870 + Luminespib (first compound 1.265 µM); 0.158 in the assay with BI-D1870 + Luminespib (first compound 4 µM); 0.748 with BI-D1870 + Phenformin (first compound 0.04 µM). Also, the relative viability with BI-D1870 + Phenformin (first compound 0.1265 µM) amounted to 0.452; in the assay with BI-D1870 + Phenformin (first compound 0.4 µM) it was 0.63; with BI-D1870 + Phenformin (first compound 1.265 µM), 0.672; with BI-D1870 + Phenformin (first compound 4 µM) it was 0.618; in the assay with BI-D1870 + Decitabine (first compound 0.04 µM) it was 0.479; in the assay with BI-D1870 + Decitabine (first compound 0.1265 µM), 0.47. Also, the relative viability with BI-D1870 + Decitabine (first compound 0.4 µM) was determined as 0.472; in the assay with BI-D1870 + Decitabine (first compound 1.265 µM) it was 0.534; with BI-D1870 + Decitabine (first compound 4 µM), 0.498.
Turning to NCI-H1563, the relative viability was determined as 0.512 with BI-D1870 + Luminespib (first compound 0.04 µM); 0.481 in the assay with BI-D1870 + Luminespib (first compound 0.1265 µM); 0.502 in the assay with BI-D1870 + Luminespib (first compound 0.4 µM); 0.521 with BI-D1870 + Luminespib (first compound 1.265 µM); 0.526 in the assay with BI-D1870 + Luminespib (first compound 4 µM); 0.669 in the assay with BI-D1870 + Phenformin (first compound 0.04 µM). The relative viability with BI-D1870 + Phenformin (first compound 0.1265 µM) came out at 0.651; with BI-D1870 + Phenformin (first compound 0.4 µM), 0.643; with BI-D1870 + Phenformin (first compound 1.265 µM), 0.682; with BI-D1870 + Phenformin (first compound 4 µM) it was 0.728; in the assay with Zebularine + Linsitinib (first compound 1 µM), 1.21; with Zebularine + Linsitinib (first compound 3.162 µM), 1.17. For the same cell line, the values for the relative viability in the assay with Zebularine + Linsitinib (first compound 10 µM), with Zebularine + Linsitinib (first compound 31.62 µM) and with Zebularine + Linsitinib (first compound 100 µM) were 1.17, 1.22 and 1.17, respectively.
For A549, the relative viability in the assay with BI-D1870 + Phenformin (first compound 0.04 µM) was determined as 0.211; in the assay with BI-D1870 + Phenformin (first compound 0.1265 µM), 0.174; with BI-D1870 + Phenformin (first compound 0.4 µM) it was 0.177; with BI-D1870 + Phenformin (first compound 1.265 µM) it was 0.207; with BI-D1870 + Phenformin (first compound 4 µM), 0.165; in the assay with BI-D1870 + Decitabine (first compound 0.04 µM), 0.213. Further, the relative viability was determined as 0.282 with BI-D1870 + Decitabine (first compound 0.1265 µM); 0.27 in the assay with BI-D1870 + Decitabine (first compound 0.4 µM); 0.288 in the assay with BI-D1870 + Decitabine (first compound 1.265 µM); 0.236 with BI-D1870 + Decitabine (first compound 4 µM); 0.741 with Zebularine + Linsitinib (first compound 1 µM); 0.635 with Zebularine + Linsitinib (first compound 3.162 µM). The relative viability with Zebularine + Linsitinib (first compound 10 µM) amounted to 0.304; with Zebularine + Linsitinib (first compound 31.62 µM), 0.716; with Zebularine + Linsitinib (first compound 100 µM) it was 0.279.
Turning to NCI-H2342, the relative viability with BI-D1870 + Luminespib (first compound 0.04 µM) was found to be 0.706; in the assay with BI-D1870 + Luminespib (first compound 0.1265 µM), 0.718; with BI-D1870 + Luminespib (first compound 0.4 µM), 0.711; with BI-D1870 + Luminespib (first compound 1.265 µM), 0.758; with BI-D1870 + Luminespib (first compound 4 µM), 0.907; with BI-D1870 + Phenformin (first compound 0.04 µM), 0.546. Besides, the relative viability in the assay with BI-D1870 + Phenformin (first compound 0.1265 µM) was determined as 0.609; in the assay with BI-D1870 + Phenformin (first compound 0.4 µM) it was 0.606; with BI-D1870 + Phenformin (first compound 1.265 µM), 0.733; in the assay with BI-D1870 + Phenformin (first compound 4 µM), 0.829; with BI-D1870 + Decitabine (first compound 0.04 µM), 0.714; with BI-D1870 + Decitabine (first compound 0.1265 µM), 0.69. Also, the results for the relative viability with BI-D1870 + Decitabine (first compound 0.4 µM), with BI-D1870 + Decitabine (first compound 1.265 µM) and with BI-D1870 + Decitabine (first compound 4 µM) were 0.793, 0.891 and 0.795, respectively.
For the cell line NCI-H2170, the relative viability with BI-D1870 + Luminespib (first compound 0.04 µM) is 0.817; with BI-D1870 + Luminespib (first compound 0.1265 µM), 0.723; in the assay with BI-D1870 + Luminespib (first compound 0.4 µM) it was 0.751; with BI-D1870 + Luminespib (first compound 1.265 µM) it was 0.65; in the assay with BI-D1870 + Luminespib (first compound 4 µM), 0.67; with BI-D1870 + Phenformin (first compound 0.04 µM), 0.439. The relative viability amounted to 0.414 with BI-D1870 + Phenformin (first compound 0.1265 µM); 0.415 in the assay with BI-D1870 + Phenformin (first compound 0.4 µM); 0.423 in the assay with BI-D1870 + Phenformin (first compound 1.265 µM); 0.441 with BI-D1870 + Phenformin (first compound 4 µM); 0.515 with BI-D1870 + Decitabine (first compound 0.04 µM); 0.384 with BI-D1870 + Decitabine (first compound 0.1265 µM). In addition, the relative viability with BI-D1870 + Decitabine (first compound 0.4 µM) came out at 0.457; with BI-D1870 + Decitabine (first compound 1.265 µM) it was 0.445; with BI-D1870 + Decitabine (first compound 4 µM) it was 0.402.
With NCI-H1623, the relative viability with BI-D1870 + Luminespib (first compound 0.04 µM) was 0.597; with BI-D1870 + Luminespib (first compound 0.1265 µM), 0.521; with BI-D1870 + Luminespib (first compound 0.4 µM) it was 0.625; with BI-D1870 + Luminespib (first compound 1.265 µM), 0.462; with BI-D1870 + Luminespib (first compound 4 µM), 0.499; in the assay with BI-D1870 + Phenformin (first compound 0.04 µM), 0.574. For the same cell line, the relative viability with BI-D1870 + Phenformin (first compound 0.1265 µM) came to 0.494; with BI-D1870 + Phenformin (first compound 0.4 µM), 0.562; with BI-D1870 + Phenformin (first compound 1.265 µM), 0.572; with BI-D1870 + Phenformin (first compound 4 µM) it was 0.542.
Consider NCI-H522, for which the relative viability was found to be 0.929 with BI-D1870 + Luminespib (first compound 0.04 µM); 1.05 with BI-D1870 + Luminespib (first compound 0.1265 µM); 0.989 with BI-D1870 + Luminespib (first compound 0.4 µM); 1.24 in the assay with BI-D1870 + Luminespib (first compound 1.265 µM); 1.29 with BI-D1870 + Luminespib (first compound 4 µM); 0.754 in the assay with BI-D1870 + Phenformin (first compound 0.04 µM). Moreover, the relative viability stood at 0.603 in the assay with BI-D1870 + Phenformin (first compound 0.1265 µM); 0.677 in the assay with BI-D1870 + Phenformin (first compound 0.4 µM); 0.763 with BI-D1870 + Phenformin (first compound 1.265 µM); 0.692 with BI-D1870 + Phenformin (first compound 4 µM); 0.595 with BI-D1870 + Decitabine (first compound 0.04 µM); 0.762 with BI-D1870 + Decitabine (first compound 0.1265 µM). In addition, the relative viability with BI-D1870 + Decitabine (first compound 0.4 µM) was determined as 0.677; with BI-D1870 + Decitabine (first compound 1.265 µM), 0.647; in the assay with BI-D1870 + Decitabine (first compound 4 µM), 0.661.
Consider IA-LM, for which the relative viability came out at 0.723 with Zebularine + Linsitinib (first compound 1 µM), 0.794 with Zebularine + Linsitinib (first compound 3.162 µM), 0.878 in the assay with Zebularine + Linsitinib (first compound 31.62 µM) and 0.503 with Zebularine + Linsitinib (first compound 100 µM).
On to CAL-12T, for which the relative viability with BI-D1870 + Luminespib (first compound 0.04 µM) amounted to 0.332; in the assay with BI-D1870 + Luminespib (first compound 0.1265 µM) it was 0.211; with BI-D1870 + Luminespib (first compound 0.4 µM) it was 0.313; in the assay with BI-D1870 + Luminespib (first compound 1.265 µM), 0.419; with BI-D1870 + Luminespib (first compound 4 µM), 0.491; with BI-D1870 + Phenformin (first compound 0.04 µM) it was 0.647. In addition, the relative viability in the assay with BI-D1870 + Phenformin (first compound 0.1265 µM) was found to be 0.452; with BI-D1870 + Phenformin (first compound 0.4 µM), 0.583; with BI-D1870 + Phenformin (first compound 1.265 µM) it was 0.461; in the assay with BI-D1870 + Phenformin (first compound 4 µM), 0.302; with Zebularine + Linsitinib (first compound 1 µM) it was 0.819; with Zebularine + Linsitinib (first compound 3.162 µM) it was 0.794. The values for the relative viability with Zebularine + Linsitinib (first compound 10 µM), with Zebularine + Linsitinib (first compound 31.62 µM) and in the assay with Zebularine + Linsitinib (first compound 100 µM) were 0.716, 0.896 and 0.464, respectively.
With EBC-1, the relative viability was 1.1 with Zebularine + Linsitinib (first compound 1 µM); 0.975 with Zebularine + Linsitinib (first compound 3.162 µM); 0.979 with Zebularine + Linsitinib (first compound 10 µM); 1.21 with Zebularine + Linsitinib (first compound 31.62 µM); 0.854 with Zebularine + Linsitinib (first compound 100 µM).
